The values below are quoted from earlier work in patent publication US7914804B2, “Slow release pharmaceutical preparation and method of administering same” (Palmaya Pty Ltd, priority 2001, dated 2011).

Each structure is given as a SMILES string.

In the case of `C=CCN1CC[C@]23c4c5ccc(O)c4O[C@H]2C(=O)CC[C@@]3(O)[C@H]1C5` [Naloxone], the t1/2 result (in the body) was “½”.

For `O=C1CC[C@@]2(O)[C@H]3Cc4ccc(O)c5c4[C@@]2(CCN3CC2CC2)[C@H]1O5` [Naltrexone], for the setting “thought to be”, the “effectiveness relative to Naloxone” value is on record as “twice as effective” and the “lasting in the body relative to Naloxone” value is on record as 8 times.
